From patent US9938562B2, “Naphthalene derived chromogenic enzyme substrates” (Glycosynth Limited, priority 2013, dated 2018)
Where a name gives a salt, the structure may show the parent alone.

Experiments:
Assay type in all cases: cell-based
[1] = system: Candida albicans ATCC 90028; conditions: Columbia agar, FAC 500 mg/L, substrate 300 mg/L, 37° C. 18 h in air
[2] = system: clinical isolates of E. coli
[3] = system: Providencia rettgeri NCTC 7475; assay: Agar plate multi-point inoculation, colour
[4] = system: Staphylococcus epidermidis NCTC 11047; assay: Agar plate multi-point inoculation, colour
[5] = system: Pseudomonas aeruginosa NCTC 10662; assay: Agar plate multi-point inoculation, colour
[6] = system: Bacillus subtilis NCTC 9372; assay: Agar plate multi-point inoculation, colour
[7] = system: Serratia marcescens NCTC 10211; assay: Agar plate multi-point inoculation, colour
[8] = system: Enterococcus faecium NCTC 7171; assay: Agar plate multi-point inoculation, colour
[9] = system: E. faecalis NCTC 775; assay: Glucuronide screen, broth containing FAC; conditions: E. faecalis NCTC 775, broth
[10] = system: Enterobacter cloacae NCTC 11936; assay: Agar plate multi-point inoculation, colour
[11] = system: Listeria monocytogenes NCTC 11994; assay: Agar plate multi-point inoculation, colour
[12] = system: Salmonella typhimurium NCTC 74; assay: Agar plate multi-point inoculation, colour
[13] = system: E. cloacae; assay: Glucuronide screen, broth containing FAC
[14] = system: Candida glabrata NCPF 3943; assay: Agar plate multi-point inoculation, colour
[15] = system: Burkholderia cepacia 1222; assay: Agar plate multi-point inoculation, colour; conditions: Columbia agar, FAC 500 mg/L, substrate 300 mg/L, 37° C. 18 h in air
[16] = system: Staphylococcus aureus NCTC 6571; assay: Agar plate multi-point inoculation, colour
[17] = system: Steptococcus pyogenes NCTC 8306; assay: Agar plate multi-point inoculation, colour
[18] = system: Enterococcus faecalis NCTC 775; assay: Agar plate multi-point inoculation, colour
[19] = system: E. faecium NCTC 7171; assay: Glucuronide screen, broth containing FAC; conditions: E. faecium NCTC 7171, broth
[20] = system: Staphylococcus aureus (MRSA) NCTC 11939; assay: Agar plate multi-point inoculation, colour; conditions: Columbia agar, FAC 500 mg/L, substrate 300 mg/L, 37° C. 18 h in air
[21] = system: Morganella morganii 462403 (wild); assay: Agar plate multi-point inoculation, colour; conditions: Columbia agar, FAC 500 mg/L, substrate 300 mg/L, 37° C. 18 h in air
[22] = system: Escherichia coli NCTC 10418; assay: Agar plate multi-point inoculation, colour
[23] = system: E. coli expressing both β-D-glucuronidase and β-D-galactosidase; assay: Broth medium with ONPG (dual chromogenic system); conditions: broth with FAC, ONPG 1.5 g/L
Method: (§1) The two indoxyl glucuronides used produce insoluble endpoints following hydrolysis, as does the CPS ID 3 medium. It was therefore necessary to test these two substrates on agar plates. In contrast, DHN-β-D-glucuronide (12) gives a much more soluble endpoint best suited to liquid media and was therefore tested in a broth medium. The broth was prepared using proteose peptone (2 g), NaCl (1 g) and FAC (100 mg) in DI water (180 mL). This mixture was autoclaved and cooled to room temperature before being dispensed into bijoux (100×1.8 mL). DHN-β-D-glucuronide CHA salt (12a) (60 mg) was dissolved in water (20 mL) and filtered to sterilize before being aseptically dispensed into successive bijoux (0.2 mL) containing the broth solution. The broth/substrate solutions were then inoculated with bacterial suspensions made up to 0.5 McFarland standard (2 μL per bijoux). X-β-D-glucuronide CHA salt (Glycosynth Ltd, Warrington, UK) (10 mg) was dissolved in NMP (200 μL). […]
(§2) Because many E. coli produce both β-D-glucuronidase and β-D-galactosidase, DHN-β-D-glucuronide (12a) was tested as in the broth medium described above but in the presence of ONPG (at a concentration of 1.5 g/L). […] The colour of these solutions of mixed chromogens could be very readily distinguished with the unaided eye from the yellow colour of those strains, such as E. cloacae, that produced β-D-galactosidase only. […]

[24] = system: Shigella sonnei; assay: Broth medium with ONPG (dual chromogenic system); conditions: combination with ONPG
Method: as §1, §2

[25] = system: Yersinia enterocolitica NCTC 11176; assay: Agar plate multi-point inoculation, colour; conditions: Columbia agar, FAC 500 mg/L, substrate 300 mg/L, 37° C. 18 h in air
[26] = system: Citrobacter freundii NCTC 9750 or 46262; assay: Agar plate multi-point inoculation, colour; conditions: Columbia agar, FAC 500 mg/L, substrate 300 mg/L, 37° C. 18 h in air

## O=C(O)C1OC(Oc2cc3ccccc3cc2O)C(O)C(O)C1O [Compound 12a, DHN-β-D-glucuronide CHA Salt]
[1]
  Colour: −
[2]
  % Sensitivity: 82%
  Colour: Purple and −
  Negative strains: 18
  Positive strains: 82
[3]
  Colour: −
[4]
  Colour: −
[5]
  Colour: −
[6]
  Colour: −
[7]
  Colour: −
[8]
  Colour: −
[9]
  Colour: −
[10]
  Colour: −
[11]
  Colour: −
[12]
  Colour: −
[13]; E. cloacae 260329R, broth
  Colour: −
[13]; E. cloacae NCTC 11936, broth
  Colour: −
[14]
  Colour: −
[15]
  Colour: −
[16]
  Colour: −
[17]
  Colour: −
[18]
  Colour: −
[19]
  Colour: −
[20]
  Colour: −
[21]
  Colour: −
[22]
  Colour: ++
  hydrolysis of substrate (judged by colour): strong colour
[23]
  colour of solutions: purple-brown solutions
[24]
  detection of β-D-glucuronidase activity: able to detect
[25]
  Colour: −
[26]
  Colour: −
